Structures can show the parent of a compound that is named as a salt.

This note sets out measurements from patent publication US20080207638A1, “Compounds” (priority 2005, published 2008).

The nature of data set [1]: Rat pharmacokinetics. The format is in vivo, male CD Sprague Dawley rats. Particulars: 1 mg/kg i.v., 3 mg/kg oral. How it is done: Compounds were dosed to male CD Sprague Dawley rats by single intravenous or oral administration at a nominal dose level of 1 mgkg^−1 and 3 mgkg^−1 respectively. Compounds were formulated in 5% DMSO/45% PEG200/50% water. An intravenous profile was obtained by taking serial or terminal blood samples at 0.083, 0.25, 0.5, 1, 2, 4, and 7 h post-dose. An oral profile was obtained by taking serial or terminal blood samples at 0.25, 0.5, 1, 2, 4, 7 and 12 h post-dose. Blood samples were taken directly into heparinised tubes. Blood samples were prepared by protein precipitation and subjected to quantitative analysis by LC-MS/MS using compound-specific mass transitions. Drug concentration-time profiles were generated and non-compartmental PK analysis used to generate estimates of half-life, clearance, volume of distribution and oral bioavailability.

A short description of data set [2]: Dog pharmacokinetics. The format is in vivo, male Beagle dogs. The conditions noted are these: 1 mg/kg i.v., 2 mg/kg oral. Here is the method:
Compounds were dosed to male Beagle dogs by single intravenous or oral administration at a nominal dose level of 1 mgkg^−1 and 2 mgkg^−1 respectively. The study was carried out according to a crossover design such that the same dog was used for both dosing events and the dosing events occurred 1 week apart. Compounds were formulated in 5%DMSO/45%Peg2oO/50%water. An intravenous profile was obtained by taking serial blood samples at 0.083, 0.25, 0.5, 0.75, 1, 2, 4, 6 & 12 h post-dose. An oral profile was obtained by taking serial blood samples at 0.25, 0.5, 0.75, 1, 2, 4, 6, 12 & 24 h post-dose. Blood samples were taken directly into heparinised tubes. Blood samples were prepared by protein precipitation and subjected to quantitative analysis by LC-MS/MS using compound-specific mass transitions. Drug concentration-time profiles were generated and non-compartmental PK analysis used to generate estimates of half-life, clearance, volume of distribution and oral bioavailability.

Data set [3] in a line: CNS penetration. It counts as in vivo, male CD Sprague Dawley rats. The conditions noted are these: male, CD Sprague Dawley, iv; rat, 1 mg/kg i.v., brain 5 min post-dose. Here is the method:
Compounds were dosed intravenously at a nominal dose level of 1 mgkg−1 to male CD Sprague Dawley rats. Compounds were formulated in 5% DMSO/45% PEG200/50% water. Blood samples were taken under terminal anaesthesia with isoflurane at 5 min post-dose and the brains were also removed for assessment of brain penetration. Blood samples were taken directly into heparinised tubes. Blood samples were prepared for analysis using protein precipitation and brain samples were prepared using extraction of drug from brain by homogenisation and subsequent protein precipitation. The concentration of parent drug in blood and brain extracts was determined by quantitative LC-MS/MS analysis using compound-specific mass transitions.

As to `C[C@@H]1CCCN1CCCOc1ccc(N2CCN(C(=O)c3ccc(F)cc3F)CC2=O)cc1` [Example E1, 4-[(2,4-Difluorophenyl)carbonyl]-1-[4-({3-[(2R)-2-methyl-1-pyrrolidinyl]propyl)oxy)phenyl]-2-piperazinone, formate salt], the oral bioavailability result was “approximately 48 % F” in data set [1] and “approximately 100 % F” in data set [2]. For the same compound, the concentration at 5 min in data set [3] is approximately 57.5 ng/g.
